From patent US20240343761A1, “APELINERGIC MACROCYCLES AND USES THEREOF” (priority 2021, published 2024) come the findings set out here.

The target in assay [1] is T1, hAPJ receptor (Homo sapiens, UniProt P35414).
T1 construct: expressed in transfected cells; host or cells: HEK293, transient transfection with PEI
T1 sequence (P35414 1-380): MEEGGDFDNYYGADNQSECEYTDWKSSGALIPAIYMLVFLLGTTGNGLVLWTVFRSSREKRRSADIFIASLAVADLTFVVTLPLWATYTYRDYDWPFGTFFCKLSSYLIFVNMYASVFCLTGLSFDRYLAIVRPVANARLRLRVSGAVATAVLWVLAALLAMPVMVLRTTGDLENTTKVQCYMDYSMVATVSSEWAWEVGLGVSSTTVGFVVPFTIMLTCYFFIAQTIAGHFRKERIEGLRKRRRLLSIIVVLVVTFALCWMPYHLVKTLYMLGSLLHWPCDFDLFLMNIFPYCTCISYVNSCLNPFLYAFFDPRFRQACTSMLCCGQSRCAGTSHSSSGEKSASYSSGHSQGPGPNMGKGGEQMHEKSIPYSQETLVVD
Description: BRET-based Gαi1 activation assay in HEK293 cells. Format: cell-based. The method, then: (§1) HEK293 cells were cultivated in high glucose DMEM medium having 10% FBS, 100 U/mL penicillin/streptomycin, 2 mM glutamine, and 20 mM HEPES at 37° C. in T175 flasks under humidified chamber at 5% CO2. […] Cells were then washed with phosphate-buffered saline (PBS) and 90 μL Hanks' balanced salt solution was added in each well. Then, cells were stimulated with analogs at concentrations ranging from 10^−5 M to 10^−11 M for 5 min at 37° C. (Gαi1) or for 30 min at room temperature (β-arrestin2). After stimulation, 5 μM of coelanterazine 400A was added to each well and the plate was read using the BRET^2 filter set of a GeniosPro plate reader (Tecan, Austria). The BRET ratio was determined as GFP10em/RlucIIem. Data were plotted and EC50 values were determined using GraphPad Prism 8. Each data point represents the mean±SEM of at least three different experiments each done in triplicate.
(BRET reads energy transfer from a luciferase to a nearby fluorophore.)

The target in assay [2] is T1, hAPJ receptor. The assay is described as follows: BRET-based β-arrestin2 recruitment assay in HEK293 cells. The format is cell-based. As to the method:
as §1

The mark [3] stands for this setting: HEK293, Table V, read-out: Gαi1 Emax.
[4] abbreviates: HEK293, Table V, read-out: ß-arr2 Emax.

Numbered stars: 1 amine (or outer) side, 2 acyl side, 3 side chain; on linkers, the order of the positions; unused ones are H or OH. Bridge positions count the residues as written; N and C are the ends. Square brackets hold non-standard residues; d marks the D form. Peptide text beside a SMILES is read from it. * marks the point of attachment. X5 = O=C([C@H](Cc1cc(C2CCCC2)c(OCc2ccccc2)c(C2CCCC2)c1)N[*:1])[*:2]; X1 = O=C([C@H](Cc1ccc(OCc2ccccc2)c(C2CCCC2)c1)N[*:1])[*:2]; Benzoyl(4-Br) = O=C(c1ccc(Br)cc1)*; pGlu = O=C1CC[C@@H](C(=O)O)N1; Nle = CCCC[C@H](N)C(=O)O; Bn = c1ccc(C*)cc1

As a reminder, the Emax is the maximal effect, on the per cent scale that the assay sets. Take `CCCC[C@H](NC(=O)[C@@H]1CCCN1C(=O)CNC(=O)[C@H](CCCCN)NC(=O)[C@@H]1CCN(S(=O)(=O)c2ccccc2[N+](=O)[O-])CC=CC[C@H](NC(=O)[C@H](CCCNC(=N)N)NC(=O)[C@@H]2CCC(=O)N2)C(=O)N[C@@H](CCCNC(=N)N)C(=O)N[C@@H](CC(C)C)C(=O)N[C@@H](CO)C(=O)N1)C(=O)N1CCC[C@H]1C(=O)N[C@@H](Cc1ccccc1)C(=O)O` [Compound 16, Pyr-R-c[X-R-L-S-Alnb]c-K-G-P-Nle-P-F]: the Emax is 102% at hAPJ receptor [1] (HEK293, read-out: Gαi1 Emax) and 98% at hAPJ receptor [2] (HEK293, read-out: ß-arr2 Emax).
With `CCCC[C@H](NC(=O)[C@@H]1CCCN1C(=O)CNC(=O)[C@H](CCCCN)NC(=O)[C@@H]1CCNCC=CC[C@H](NC(=O)[C@H](CCCNC(=N)N)NC(=O)[C@@H]2CCC(=O)N2)C(=O)N[C@@H](CCCNC(=N)N)C(=O)N[C@@H](CC(C)C)C(=O)N[C@@H](CO)C(=O)N1)C(=O)N1CCC[C@H]1C(=O)N[C@@H](Cc1ccccc1)C(=O)O` [Compound 18, Pyr-R-c[X-R-L-S-Alb]c-K-G-P-Nle-P-F], the Emax turned out to be 100% on hAPJ receptor [1] (setting [3]) and 86% on hAPJ receptor [2] (setting [4]).
As to `CCCC[C@H](NC(=O)[C@@H]1CCCN1C(=O)CNC(=O)[C@H](CCCCN)NC(=O)[C@@H]1CCN(C)CC=CC[C@H](NC(=O)[C@H](CCCNC(=N)N)NC(=O)[C@@H]2CCC(=O)N2)C(=O)N[C@@H](CCCNC(=N)N)C(=O)N[C@@H](CC(C)C)C(=O)N[C@@H](CO)C(=O)N1)C(=O)N1CCC[C@H]1C(=O)N[C@@H](Cc1ccccc1)C(=O)O` [Compound 19, Pyr-R-c[X-R-L-S-Almb]c-K-G-P-Nle-P-F], the Emax came out at 102% on hAPJ receptor [1] (setting [3]) and 90% at hAPJ receptor [2] (setting [4]).
The like results for `CCCC[C@H](NC(=O)[C@@H]1CCCN1C(=O)CNC(=O)[C@H](CCCCN)NC(=O)[C@@H]1CC=CC[C@H](NC(=N)N)C(=O)N[C@@H](CCCNC(=N)N)C(=O)N[C@@H](CC(C)C)C(=O)N[C@@H](CO)C(=O)N1)C(=O)N1CCC[C@H]1C(=O)N[C@@H](Cc1ccccc1)C(=O)O` [Compound 23, Guanidine-c[X-R-L-S-X]c-K-G-P-Nle-P-F] were, in that order, 103% and 92%.
As to `CCCC[C@H](NC(=O)[C@@H]1CCCN1C(=O)CNC(=O)[C@H](CCCCN)NC(=O)[C@@H]1CCN(S(=O)(=O)c2ccccc2[N+](=O)[O-])CC=CC[C@H](N)C(=O)N[C@@H](CCCNC(=N)N)C(=O)N[C@@H](CC(C)C)C(=O)N[C@@H](CO)C(=O)N1)C(=O)N1CCC[C@H]1C(=O)N[C@@H](Cc1ccccc1)C(=O)O` [Compound 28, NH2-c[X-R-L-S-Alnb]c-K-G-P-Nle-P-F], the values for the Emax at hAPJ receptor [1] (setting [3]) and on hAPJ receptor [2] (setting [4]) were 106% and 82%, respectively.
With `CC(C)C[C@@H]1NC(=O)[C@H](CCCNC(=N)N)NC(=O)[C@@H](N)CC=CC[C@@H](C(=O)N[C@@H](CCCCN)C(=O)NCC(=O)N2CCC[C@H]2C(=O)N[C@H](Cc2ccc(OCc3ccccc3)cc2)C(=O)O)NC(=O)[C@H](CO)NC1=O` [Compound 44, NH2-c[X-R-L-S-X]c-K-G-P-(D-TyrOBn)], the Emax at hAPJ receptor [1] (setting [3]) stood at 104%; at hAPJ receptor [2] (setting [4]), 78%.
Consider `CC(C)C[C@@H]1NC(=O)[C@H](CCCNC(=N)N)NC(=O)[C@@H](N)CC=CC[C@@H](C(=O)N[C@@H](CCCCN)C(=O)NCC(=O)N2CCC[C@H]2C(=O)N[C@H](Cc2ccc(O)cc2)C(=O)O)NC(=O)[C@H](CO)NC1=O` [Compound 45, NH2-c[X-R-L-S-X]c-K-G-P-(D-Tyr)], for which the Emax on hAPJ receptor [1] (setting [3]) was found to be 100%; on hAPJ receptor [2] (setting [4]) it was 54%.
The EC50 is the concentration at which the effect is half-maximal. Take `CCCC[C@H](NC(=O)[C@@H]1CCCN1C(=O)[C@@H]1CCCCNC(=O)CC[C@H](NC(=O)[C@H](CC(C)C)NC(=O)[C@H](CCCNC(=N)N)NC(=O)[C@@H]2CCCN2C(=O)[C@H](CCCNC(=N)N)NC(=O)[C@H](CCC(N)=O)NC(=O)[C@H](CCCNC(=N)N)NC(=O)[C@H](CCCNC(=N)N)NC(=O)[C@H](Cc2ccccc2)NC(=O)[C@H](CCCCN)NC(C)=O)C(=O)N[C@@H](Cc2c[nH]cn2)C(=O)N[C@@H](CCCCN)C(=O)N1)C(=O)N1CCC[C@H]1C(=O)N[C@@H](Cc1ccc(OCc2ccccc2)c(C2CCCC2)c1)C(=O)O` [Compound 63, Ac-K-F-R-R-Q-R-P-R-L-[E-H-K-K]-P-Nle-P-cypTyrOBn] (Ac-KFRRQRPRLEHKKP[Nle]P[X1]-OH; lactam 10-13): the EC50 on hAPJ receptor [1] was found to be 5.48 nM; on hAPJ receptor [2], 63.6 nM.
Regarding `CCCC[C@H](NC(=O)[C@@H]1CCCN1C(=O)[C@@H]1CCCCNC(=O)CC[C@H](NC(=O)[C@H](CC(C)C)NC(=O)[C@H](CCCNC(=N)N)NC(=O)[C@@H]2CCCN2C(=O)[C@H](CCCNC(=N)N)NC(=O)[C@H](CCC(N)=O)NC(=O)[C@H](CCCNC(=N)N)NC(=O)[C@H](CCCNC(=N)N)NC(=O)[C@H](Cc2ccccc2)NC(=O)[C@H](CCCCN)NC(C)=O)C(=O)N[C@@H](Cc2c[nH]cn2)C(=O)N[C@@H](CCCCN)C(=O)N1)C(=O)N1CCC[C@H]1C(=O)N[C@@H](Cc1cc(C2CCCC2)c(OCc2ccccc2)c(C2CCCC2)c1)C(=O)O` [Compound 65, Ac-K-F-R-R-Q-R-P-R-L-[E-H-K-K]-P-Nle-P-dcypTyrOBn] (Ac-KFRRQRPRLEHKKP[Nle]P[X5]-OH; lactam 10-13), the EC50 on hAPJ receptor [2] was more than 10000 nM.
The same measure, in the same setting: the result for `CCCC[C@H](NC(=O)[C@@H]1CCCN1C(=O)[C@@H]1CCCCNC(=O)CC[C@H](NC(=O)[C@H](CC(C)C)NC(=O)[C@H](CCCNC(=N)N)NC(=O)[C@@H]2CCCN2C(=O)[C@H](CCCNC(=N)N)NC(=O)[C@H](CCC(N)=O)NC(=O)[C@H](CCCNC(=N)N)NC(=O)[C@H](CCCNC(=N)N)NC(=O)[C@H](Cc2ccccc2)NC(=O)[C@H](CCCCN)NC(C)=O)C(=O)N[C@@H](Cc2c[nH]cn2)C(=O)N[C@@H](CCCCN)C(=O)N1)C(=O)N1CCC[C@H]1C(=O)N[C@@H](Cc1ccc(OCc2ccccc2)cc1)C(=O)O` [Compound 66, Ac-K-F-R-R-Q-R-P-R-L-[E-H-K-K]-P-Nle-P-TyrOBn] (Ac-KFRRQRPRLEHKKP[Nle]PY(Bn)-OH; lactam 10-13) reads 334 nM.
For `CCCC[C@H](NC(=O)[C@@H]1CCC(=O)NCCCC[C@H](N)C(=O)N[C@@H](CCCNC(=N)N)C(=O)N[C@@H](CCCNC(=N)N)C(=O)N1)C(=O)N1CCC[C@H]1C(=O)N[C@@H](CC(C)C)C(=O)N[C@@H](Cc1c[nH]cn1)C(=O)N[C@@H](CO)C(=O)N[C@@H](CCCNC(=N)N)C(=O)N[C@H](C(=O)N1CCC[C@H]1C(=O)N[C@@H](Cc1ccccc1)C(=O)N1CCC[C@H]1C(=O)O)C(C)C` [Compound 72, c[K-R-R-E]-Nle-P-L-H-S-R-V-P-F-P] (H-KRRE[Nle]PLHSRVPFP-OH; lactam 1-4), the EC50 on hAPJ receptor [1] was 1.7 ± 0.4 nM; at hAPJ receptor [2], 47 ± 2 nM.
In turn, `CCCC[C@@H]1NC(=O)[C@@H](NC(=O)[C@H](CCCNC(=N)N)NC(=O)[C@H](CCCNC(=N)N)NC(=O)[C@@H]2CCC(=O)N2)CCC(=O)NCCCC[C@@H](C(=O)N[C@@H](Cc2c[nH]cn2)C(=O)N[C@@H](CO)C(=O)N[C@@H](CCCNC(=N)N)C(=O)N[C@H](C(=O)N2CCC[C@H]2C(=O)N[C@@H](Cc2ccccc2)C(=O)N2CCC[C@H]2C(=O)O)C(C)C)NC(=O)[C@@H]2CCCN2C1=O` [Compound 75, Pyr-R-R-c[E-Nle-P-K]-H-S-R-V-P-F-P] ([pGlu]RRE[Nle]PKHSRVPFP-OH; lactam 4-7) had an EC50 at hAPJ receptor [2] of 2020 ± 479 nM.
Still for that read-out and setting: with `CC(C)C[C@@H]1NC(=O)[C@@H]2CCCN2C(=O)[C@@H](NC(=O)[C@H](CO)NC(=O)[C@H](CCCNC(=N)N)NC(=O)[C@H](CCCNC(=N)N)NC(=O)[C@@H]2CCC(=O)N2)CCC(=O)NCCCC[C@@H](C(=O)N[C@@H](CCCNC(=N)N)C(=O)N[C@H](C(=O)N2CCC[C@H]2C(=O)N[C@@H](Cc2ccccc2)C(=O)N2CCC[C@H]2C(=O)O)C(C)C)NC(=O)[C@H](Cc2c[nH]cn2)NC1=O` [Compound 77, Pyr-R-R-S-c[E-P-L-H-K]-R-V-P-F-P] the figure was 247 ± 62 nM; with `CC(C)C[C@@H]1NC(=O)[C@@H]2CCCN2C(=O)[C@@H](NC(=O)[C@H](CO)NC(=O)[C@H](CCCNC(=N)N)NC(=O)[C@H](CCCNC(=N)N)NC(=O)c2ccc(Br)cc2)CCC(=O)NCCCC[C@@H](C(=O)N[C@@H](CCCNC(=N)N)C(=O)N[C@H](C(=O)N2CCC[C@H]2C(=O)N[C@@H](Cc2ccccc2)C(=O)N2CCC[C@H]2C(=O)O)C(C)C)NC(=O)[C@H](Cc2c[nH]cn2)NC1=O` [Compound 89, 4BrBz-R-R-S-[E-P-L-H-K]-R-V-P-F-P] ({Benzoyl(4-Br)}-RRSEPLHKRVPFP-OH; lactam 4-8), 50 ± 4 nM.
Turning to `CC(C)C[C@@H]1NC(=O)[C@@H]2CCCN2C(=O)[C@@H](NC(=O)[C@H](CO)NC(=O)[C@H](CCCNC(=N)N)NC(=O)[C@H](CCCCNC(=N)N)NC(=O)[C@@H]2CCC(=O)N2)CCC(=O)NCCCC[C@@H](C(=O)N[C@@H](CCCNC(=N)N)C(=O)N[C@H](C(=O)N2CCC[C@H]2C(=O)N[C@@H](Cc2ccccc2)C(=O)N2CCC[C@H]2C(=O)O)C(C)C)NC(=O)[C@H](Cc2c[nH]cn2)NC1=O` [Compound 90, Pyr-hR-R-S-[E-P-L-H-K]-R-V-P-F-P], on hAPJ receptor [2], the EC50 was found to be 394 ± 47 nM.
